Results from US8680159B2, “Bradykinin 1 receptor modulating compounds” (Gruenenthal GmbH, priority 2010, dated 2014).

target: T1, human B1R receptor (CHO K1 cells stably transfected with the human B1R gene) (Homo sapiens, UniProt P46663); assay: Functional study on the bradykinin receptor 1 (B1R), Ca2+ fluorescence (Fluo-4) FLIPR/Novostar assay, hB1R cells; assay type: cell-based; details: CHO-K1, read-out: % Inhibition (h-B1R) at 10 μM
T1 construct: expressed in transfected cells; host or cells: CHO K1 cells (Chinese hamster ovary), stably transfected
T1 sequence (P46663 1-353): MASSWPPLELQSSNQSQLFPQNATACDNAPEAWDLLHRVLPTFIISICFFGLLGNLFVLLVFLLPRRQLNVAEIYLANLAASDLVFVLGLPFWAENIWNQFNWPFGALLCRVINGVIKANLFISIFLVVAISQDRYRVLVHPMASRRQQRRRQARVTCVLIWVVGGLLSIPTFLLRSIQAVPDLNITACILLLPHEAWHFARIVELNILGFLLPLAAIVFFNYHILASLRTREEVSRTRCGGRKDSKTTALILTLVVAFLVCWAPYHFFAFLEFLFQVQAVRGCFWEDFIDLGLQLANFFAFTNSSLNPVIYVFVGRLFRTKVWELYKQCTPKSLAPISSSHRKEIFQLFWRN
How it was run: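 Test compounds (10 μM) were added first and the Ca2+ rise was scored as % activation against Lys-Des-Arg9-bradykinin (≥50 nM, human) or Des-Arg9-bradykinin (≥1 μM, rat). After 6-20 min, the matching agonist was given at its EC80, and % inhibition relative to maximal achievable inhibition was calculated.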

First: Cc1cc(N2CCC(N(C)C(=O)c3ccc4c(c3)C(NC(=O)c3cncnc3)CC4)CC2)cc(C)n1 (centres unmarked) [CC_H-118, N-[6-[[1-(2,6-Dimethyl-pyridin-4-yl)-piperidin-4-yl]-methyl-carbamoyl]-2,3-dihydro-1H-inden-1-yl]-pyrimidine-5-carboxylic acid amide]
Second: CN(C(=O)c1ccc2c(c1)C(NC(=O)c1cncnc1)CC2)C1CCN(c2ccc3cnccc3c2)CC1 (centres unmarked) [CC_H-130, N-[6-[(1-Isoquinolin-6-yl-piperidin-4-yl)-methyl-carbamoyl]-2,3-dihydro-1H-inden-1-yl]-pyrimidine-5-carboxylic acid amide]
The inhibition at 10 µM of the first is higher: 89% for the first, 81% for the second.

`Cc1cc(N2CCC(N(C)C(=O)c3ccc4c(c3)C(NC(=O)c3cc(F)ccc3Cl)CC4)CC2)cc(C)n1` (centres unmarked) [CC_H-119, 3-[(2-Chloro-5-fluoro-benzoyl)amino]-N-[1-(2,6-dimethyl-pyridin-4-yl)-piperidin-4-yl]-N-methyl-2,3-dihydro-1H-indene-5-carboxylic acid amide] and `Cc1cc(N2CCC(N(C)C(=O)c3ccc4c(c3)C(NC(=O)N(C)c3ccccc3Cl)CC4)CC2)cc(C)n1` (centres unmarked) [CC_H-142, 3-[[(2-Chlorophenyl)-methyl-carbamoyl]amino]-N-[1-(2,6-dimethyl-pyridin-4-yl)-piperidin-4-yl]-N-methyl-2,3-dihydro-1H-indene-5-carboxylic acid amide] are the same in inhibition at 10 µM: 100% for the first, 100% for the second.

`Cc1cc(N2CCC(N(C)C(=O)c3ccc4c(c3)C(NC(=O)CCC3CCCC3)CC4)CC2)cc(C)n1` (centres unmarked) [CC_H-120, 3-(3-Cyclopentyl-propanoylamino)-N-[1-(2,6-dimethyl-pyridin-4-yl)-piperidin-4-yl]-N-methyl-2,3-dihydro-1H-indene-5-carboxylic acid amide] and `Cc1cc(N2CCC(N(C)C(=O)c3ccc4c(c3)C(NC(=O)C3CCCCC3)CC4)CC2)cc(C)n1` (centres unmarked) [CC_H-123, 3-(Cyclohexanecarbonylamino)-N-[1-(2,6-dimethyl-pyridin-4-yl)-piperidin-4-yl]-N-methyl-2,3-dihydro-1H-indene-5-carboxylic acid amide] are the same in inhibition at 10 µM: 100% for the first, 100% for the second.

`Cc1cc(N2CCC(N(C)C(=O)c3ccc4c(c3)C(NS(=O)(=O)Cc3ccccc3C(F)(F)F)CC4)CC2)cc(C)n1` (centres unmarked) [CC_H-121, N-[1-(2,6-Dimethyl-pyridin-4-yl)-piperidin-4-yl]-N-methyl-3-[[[2-(trifluoromethyl)-phenyl]-methylsulfonyl]amino]-2,3-dihydro-1H-indene-5-carboxylic acid amide] and `Cc1cc(N2CCC(N(C)C(=O)c3ccc4c(c3)C(N(C)S(=O)(=O)Cc3ccccc3C(F)(F)F)CC4)CC2)cc(C)n1` (centres unmarked) [CC_H-129, N-[1-(2,6-Dimethyl-pyridin-4-yl)-piperidin-4-yl]-N-methyl-3-[methyl-[[2-(trifluoromethyl)-phenyl]-methylsulfonyl]-amino]-2,3-dihydro-1H-indene-5-carboxylic acid amide] are the same in inhibition at 10 µM: 100% for the first, 100% for the second.

Going from `Cc1cc(N2CCC(N(C)C(=O)c3ccc4c(c3)C(NC(=O)CC(C)C)CC4)CC2)cc(C)n1` (centres unmarked) [CC_H-122, N-[1-(2,6-Dimethyl-pyridin-4-yl)-piperidin-4-yl]-N-methyl-3-(3-methyl-butanoylamino)-2,3-dihydro-1H-indene-5-carboxylic acid amide] to `Cc1cc(N2CCC(N(C)C(=O)c3ccc4c(c3)C(NC(=O)C(C)(C)c3ccccc3Cl)CC4)CC2)cc(C)n1` (centres unmarked) [CC_H-131, 3-[[2-(2-Chlorophenyl)-2-methyl-propanoyl]amino]-N-[1-(2,6-dimethyl-pyridin-4-yl)-piperidin-4-yl]-N-methyl-2,3-dihydro-1H-indene-5-carboxylic acid amide], the inhibition at 10 µM falls from 100% to 99%.

Going from `CN(C(=O)c1ccc2c(c1)C(NC(=O)c1cncnc1)CCO2)C1CCN(c2ccncc2)CC1` (centres unmarked) [CC_H-124, N-[6-[Methyl-(1-pyridin-4-yl-piperidin-4-yl)-carbamoyl]-3,4-dihydro-2H-chromen-4-yl]-pyrimidine-5-carboxylic acid amide] to `Cc1cccc(C)c1C(=O)NC1CCc2ccc(C(=O)N(C)C3CCN(c4ccncc4)CC3)cc21` (centres unmarked) [CC_H-138, 3-[(2,6-Dimethyl-benzoyl)amino]-N-methyl-N-(1-pyridin-4-yl-piperidin-4-yl)-2,3-dihydro-1H-indene-5-carboxylic acid amide], the inhibition at 10 µM rises from 68% to 98%.

`CN(C(=O)c1ccc2c(c1)C(NS(=O)(=O)Cc1ccccc1C(F)(F)F)CCC2)C1CCN(c2ccncc2)CC1` (centres unmarked) [CC_H-125, N-Methyl-N-(1-pyridin-4-yl-piperidin-4-yl)-8-[[[2-(trifluoromethyl)-phenyl]-methylsulfonyl]amino]-5,6,7,8-tetrahydro-naphthalene-2-carboxylic acid amide] and `CN(C(=O)c1ccc2c(c1)C(NS(=O)(=O)Cc1ccccc1C(F)(F)F)CC2)C1CCN(c2ccncc2)CC1` (centres unmarked) [CC_H-141, N-Methyl-N-(1-pyridin-4-yl-piperidin-4-yl)-3-[[[2-(trifluoromethyl)-phenyl]-methylsulfonyl]amino]-2,3-dihydro-1H-indene-5-carboxylic acid amide] are the same in inhibition at 10 µM: 100% for the first, 100% for the second.

Going from `CN(C(=O)NC1CCc2cc(C(=O)N(C)C3CCN(c4ccncc4)CC3)ccc21)c1ccccc1Cl` (centres unmarked) [CC_H-126, 1-[[(2-Chlorophenyl)-methyl-carbamoyl]amino]-N-methyl-N-(1-pyridin-4-yl-piperidin-4-yl)-2,3-dihydro-1H-indene-5-carboxylic acid amide] to `CN(C(=O)c1ccc2c(c1)C(NC(=O)C(C)(C)c1ccccc1Cl)CC2)C1CCN(c2ccncc2)CC1` (centres unmarked) [CC_H-139, 3-[[2-(2-Chlorophenyl)-2-methyl-propanoyl]amino]-N-methyl-N-(1-pyridin-4-yl-piperidin-4-yl)-2,3-dihydro-1H-indene-5-carboxylic acid amide], the inhibition at 10 µM falls from 100% to 98%.

Compared with `CN(C(=O)c1ccc2c(c1)CCC2NC(=O)c1c(Cl)cccc1C(F)(F)F)C1CCN(c2ccncc2)CC1` (centres unmarked) [CC_H-127, 1-[[2-Chloro-6-(trifluoromethyl)-benzoyl]amino]-N-methyl-N-(1-pyridin-4-yl-piperidin-4-yl)-2,3-dihydro-1H-indene-5-carboxylic acid amide], `CN(C(=O)c1ccc2c(c1)C(NC(=O)c1c(Cl)cccc1C(F)(F)F)CC2)C1CCN(c2ccncc2)CC1` (centres unmarked) [CC_H-137, 3-[[2-Chloro-6-(trifluoromethyl)-benzoyl]amino]-N-methyl-N-(1-pyridin-4-yl-piperidin-4-yl)-2,3-dihydro-1H-indene-5-carboxylic acid amide] is higher in inhibition at 10 µM: 95% for the first, 96% for the second.

Going from `O=C(NCCC1CCN(c2ccncc2)CC1)c1ccc2c(c1)C(NS(=O)(=O)Cc1ccccc1C(F)(F)F)CC2` (centres unmarked) [CC_H-128, N-[2-(1-Pyridin-4-yl-piperidin-4-yl)-ethyl]-3-[[[2-(trifluoromethyl)-phenyl]-methylsulfonyl]amino]-2,3-dihydro-1H-indene-5-carboxylic acid amide] to `O=C(NCCC1CCN(c2ccncc2)CC1)c1ccc2c(c1)C(NC(=O)c1c(Cl)cccc1C(F)(F)F)CC2` (centres unmarked) [CC_H-136, 3-[[2-Chloro-6-(trifluoromethyl)-benzoyl]amino]-N-[2-(1-pyridin-4-yl-piperidin-4-yl)-ethyl]-2,3-dihydro-1H-indene-5-carboxylic acid amide], the inhibition at 10 µM rises from 99% to 100%.

First: CC(C)CC(=O)NC1CCc2ccc(C(=O)NCCC3CCN(c4ccncc4)CC3)cc21 (centres unmarked) [CC_H-132, 3-(3-Methyl-butanoylamino)-N-[2-(1-pyridin-4-yl-piperidin-4-yl)-ethyl]-2,3-dihydro-1H-indene-5-carboxylic acid amide]
Second: CC(C)CC(=O)NC1CCCc2ccc(C(=O)N(C)C3CCN(c4ccncc4)CC3)cc21 (centres unmarked) [CC_H-135, N-Methyl-8-(3-methyl-butanoylamino)-N-(1-pyridin-4-yl-piperidin-4-yl)-5,6,7,8-tetrahydro-naphthalene-2-carboxylic acid amide]
The inhibition at 10 µM of the first is lower: 99% for the first, 100% for the second.

Compared with `Cc1cccc(C)c1C(=O)NC1CCc2ccc(C(=O)N(C)C3CCN(c4ccc5cnccc5c4)CC3)cc21` (centres unmarked) [CC_H-133, 3-[(2,6-Dimethyl-benzoyl)amino]-N-(1-isoquinolin-6-yl-piperidin-4-yl)-N-methyl-2,3-dihydro-1H-indene-5-carboxylic acid amide], `CN(C(=O)c1ccc2c(c1)C(NC(=O)C1CCCCC1)CC2)C1CCN(c2ccncc2)CC1` (centres unmarked) [CC_H-140, 3-(Cyclohexanecarbonylamino)-N-methyl-N-(1-pyridin-4-yl-piperidin-4-yl)-2,3-dihydro-1H-indene-5-carboxylic acid amide] is higher in inhibition at 10 µM: 90% for the first, 100% for the second.

`Cc1cc(N2CCC(N(C)C(=O)c3ccc4c(c3)C(N(C)S(=O)(=O)c3c(Cl)cccc3C(F)(F)F)CC4)CC2)cc(C)n1` (centres unmarked) [CC_H-134, 3-[[[2-Chloro-6-(trifluoromethyl)-phenyl]sulfonyl]-methyl-amino]-N-[1-(2,6-dimethyl-pyridin-4-yl)-piperidin-4-yl]-N-methyl-2,3-dihydro-1H-indene-5-carboxylic acid amide] and `CN(C(=O)c1ccc2c(c1)CCC2NS(=O)(=O)c1c(Cl)cccc1C(F)(F)F)C1CCN(c2ccncc2)CC1` (centres unmarked) [CC_H-143, 1-[[[2-Chloro-6-(trifluoromethyl)-phenyl]sulfonyl]amino]-N-methyl-N-(1-pyridin-4-yl-piperidin-4-yl)-2,3-dihydro-1H-indene-5-carboxylic acid amide] are the same in inhibition at 10 µM: 100% for the first, 100% for the second.
